Values after ≈ are worked out from the molar mass of the structure shown. Structures can show the parent of a compound that is named as a salt.

As a reminder, the IC50 is the concentration at which inhibition is half-maximal. By pKa is commonly meant the pH at which an ionisable group is half protonated. By Solubility is commonly meant how much of the substance goes into solution per volume.

The target in one data set is human DGAT2 (hDGAT2) (Homo sapiens (Human), UniProt Q96PD7). The data set is described as follows: In vitro DGAT2 assay, determination of IC50 values for DGAT2 inhibitors. To be noted: hDGAT2 membrane fraction; geometric mean. It counts as biochemical. As for the experimental part: Recombinant baculovirus for the FLAG-tagged hDGAT2 was generated in SF9 insect cells using Bac-to-Bac baculovirus expression system (Invitrogen) according to the manufacturer's protocol. For the expression of hDGAT2, SF9 cells (20 L) grown in Sf900II media were infected with hDGAT2 baculovirus at a multiplicity of infection of 1 in a Wave Bioreactor System 20/50P wave bag (GE Healthcare). After 40 hours of infection, the cells were then harvested by centrifugation at 5,000×g. The cell pellets were washed by resuspending in phosphate buffered saline (PBS) and collected by centrifugation at 5,000×g. The cell paste was flash frozen in liquid N2 and stored at −80° C. until needed. All operations below were at 4° C. unless otherwise noted. The cells were resuspended in lysis buffer (50 mM Tris-HCl, pH 8.0, 250 mM sucrose) including 1 mM ethylenediaminetetraacetic acid (EDTA) and the complete protease inhibitor cocktail (Roche Diagnostics) at a ratio of 3 mL buffer per 1 g cell paste. The cells were lysed by dounce homogenizer. The cell debris was removed by centrifugation at 1,000×g for 20 min, and the supernatant was centrifuged at 100,000×g for 1 hour. The resulting pellet was rinsed three times by filling ultracentrifuge tubes to the top with ice cold PBS before decanting. The washed pellet was resuspended with gentle stirring for 1 hour in lysis buffer containing 8 mM 3-[(3-cholamidopropyl)dimethylammonio]-1-propanesulfonate (CHAPS) at a ratio of 1 mL buffer per 1 g of original cell paste and centrifuged again at 100,000×g for 1 hour. The resulting supernatant was aliquotted, flash frozen in liquid N2, and stored at −80° C. until use.
human DGAT2 (hDGAT2), sequence (Q96PD7 whole entry): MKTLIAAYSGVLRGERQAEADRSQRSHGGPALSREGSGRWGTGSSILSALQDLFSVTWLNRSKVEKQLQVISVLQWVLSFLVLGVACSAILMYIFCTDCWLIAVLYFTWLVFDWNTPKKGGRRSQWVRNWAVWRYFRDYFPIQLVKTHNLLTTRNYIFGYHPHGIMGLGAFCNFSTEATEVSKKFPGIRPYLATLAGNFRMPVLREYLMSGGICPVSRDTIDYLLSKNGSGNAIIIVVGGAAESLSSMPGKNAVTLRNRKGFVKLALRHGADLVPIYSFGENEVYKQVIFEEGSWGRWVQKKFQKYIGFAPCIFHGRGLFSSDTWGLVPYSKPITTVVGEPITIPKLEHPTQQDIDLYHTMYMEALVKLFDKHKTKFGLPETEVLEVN
To 1 μL of compounds dissolved in 100% DMSO and spotted at the bottom of each well, 5 μL of 0.04% bovine serum albumin (BSA) (fatty acid free, Sigma Aldrich) was added and the mixture was incubated at room temperature for 15 minutes. hDGAT2 membrane fractions were diluted in 100 mM Hepes-NaOH, pH 7.4, 20 mM MgCl2 containing 200 nM methyl arachidonyl fluorophosphonate (Cayman Chemical; dried from ethyl acetate stock solution under argon gas and dissolved in DMSO as 5 mM stock). 10 μL of this enzyme working solution was added to the plates and incubation continued for 2 hours at room temperature. […] Plates were centrifuged at 2,000×g for 1 minute in an Allegra 6R Centrifuge (Beckman Coulter) and then were sealed again with fresh covers before reading in a 1450 Microbeta Wallac Trilux Scintillation Counter (Perkin Elmer). DGAT2 activity was measured by quantifying the generated product [^14C]tridecanoylglycerol in the upper organic phase. […]

Data set [1] in a line: Determination of pKa (capillary electrophoresis, Analiza, Inc.). The data set is classed as physicochemical. Particulars: mean, read-out: Basic pKa (most basic pKa).
In data set [2] the target is DGAT2 in human hepatocytes (Homo sapiens (Human), UniProt Q96PD7). The data set is described as follows: Determination of IC50 values for DGAT2 inhibitors in human hepatocytes. It counts as cell-based. To be noted: cryopreserved human hepatocytes, DGAT1 inhibitor present; geometric mean. As for the experimental part: For evaluation of the effects of DGAT2 inhibitors in a cell-based setting, cryopreserved human hepatocytes (Lot DOO, Celsis, Baltimore, Md.) were thawed and plated onto type I collagen-coated plates according to the manufacturer's instructions. After 18 hours overnight recovery period, the cells were overlayed with media containing 250 μg/mL Geltrex Basement Membrane Matrix (Thermo Fisher). The following day, media was aspirated and replaced with serum-free Williams Media E (Thermo Fisher) containing 400 μM sodium dodecanoate (Sigma-Aldrich, St. Louis, Mo.) and 2 mM GlutaMAX (Thermo Fisher). […] DGAT2 inhibitors were then added to the desired final concentration. After a 15 minute preincubation, 0.2 μCi [^14C(U)]-glycerol (Perkin Elmer) was added to each well followed by a 3 hour incubation. At this point the media was removed, and the cells lysed via orbital shaking in isopropyl alcohol: tetrahydrofuran (9:1) for 15 minutes prior to centrifugation at 3000 rpm for 10 minutes. Radiolabeled lipids were resolved using a solvent system by thin layer chromatography with the solvent consisting of hexanes:diethyl ether:glacial acetic acid (75:23:2, v/v/v). […] The half maximal inhibitory concentrations (IC50 values) were determined by nonlinear regression analysis of the % inhibition dose response curve using GraphPad Prism (GraphPad Software, Inc., La Jolla, Calif.). […]
DGAT2 in human hepatocytes, sequence (Q96PD7 whole entry): as above

Data set [3] can be described thus: Intrinsic clearance in human liver microsomes. It counts as in vitro ADME. Particulars: human, pooled human liver microsomes (50 donors), pH 7.4, human liver microsome assay; 1 μM test compound, 0.806 mg/mL protein, NADPH, pH 7.4, 37° C.; mean +/− STD Dev; read-out: CLint (μL/min/mg) (+/− STD Dev). As for the experimental part: The incubations were conducted at 37° C. […] (Sorvall RC 3C Plus, Thermo Scientific, Waltham, Mass.).

A short description of data set [4]: High throughput determination of intrinsic clearance in human hepatocytes. It counts as in vitro ADME. Particulars: human, pooled cryopreserved human hepatocytes (10 donors), high throughput human hepatocyte assay; 0.5 million cells/mL, 1 μM test compound, 37° C.; mean +/− Std Dev; read-out: CLint (μL/min/10^6 cells) (+/− Std Dev). As for the experimental part:
The incubation was carried out at 37° C. […] The samples were centrifuged (Eppendorf, Hauppauge, N.Y.) at 3000 rpm for 5 min at 4° C.

In data set [5] the test system is Western diet fed Sprague-Dawley rats. Briefly: Rat western diet model: in vivo effects on plasma and hepatic triglyceride levels. Particulars: compared with chow-fed vehicle animals. From the text:
The rat western diet model was utilized to assess the effects of DGAT2 inhibitor treatment on plasma triglyceride production and hepatic triglyceride content in vivo. Male Sprague-Dawley rats were housed under standard laboratory conditions on a 12-hour light, 12-hour dark cycle (lights on at 06:00). Two weeks prior to study start animals were placed on a high-fat, high sucrose, high-cholesterol diet (D12079b, provided by Research Diets, New Brunswick, N.J.). This diet provides ˜43% of kilocalories from carbohydrate and ˜41% of kilocalories from fat. Example 4 was administered orally as a solution (10 mL/kg dosing volume) in 0.5% methylcellulose in deionized water, pH 7.0-7.5 (methylcellulose was obtained from Sigma-Aldrich, St. Louis, Mo.). […] Plasma TG levels were determined using a Roche Hitachi Chemistry analyzer according to the manufacturer's instructions (Roche Diagnostics Corporation, Indianapolis, Ind.) and data was analyzed using GraphPad Prism (GraphPad Software, Inc., La Jolla, Calif.). […] The triglyceride assay was performed through absorbance and reported as milligrams per deciliter. […]
FIG. 4 plots the multiple dose effects of Example 4 on Plasma Triglyceride in Western Diet Fed Sprague-Dawley Rats where plasma triglyceride levels were determined from blood drawn from the lateral tail vein 2-hours following the final dose of Example 4. […]

Data set [6] is described as follows: Thermodynamic solubility in various biorelevant media. It counts as physicochemical. Particulars: PBS, pH 6.8; crystalline solid. As for the experimental part:
The solubility of active pharmaceutical ingredients is an important characteristic in determining biological performance and ease of formulation during drug development, with high solubility being preferred (Klein, S. 2010, The AAPS Journal, 12, 397-406; Di, L., et al 2012, Drug Disc. Today, 17. 486-495). A test sample of crystalline solid (˜7 mg) was combined in a vial with 1 mL of the relevant buffer solution and the mixture vortexed to combine. If the solid dissolved completely, additional solid was added with vortexing until a saturated solution was obtained. The saturated solution/solid mixture was capped and subjected to temperature cycling as follows: 1 min at 25° C., 8 h at 40° C., 5 h at 15° C. and 12 h at 25° C. The mixture was filtered in a centrifugal filtration device (0.22 μm PVDF filter, MilliporeSigma, Milwaukee, Wis.) at 13,000 rpm and the concentration of the test compound in the filtrate was determined by HPLC/UPLC with reference to a three point standard curve. Phosphate buffered saline (PBS, pH 6.8, 50 mM phosphate buffer, 250 mM NaCl). Simulated gastric fluid (SGN pH 1.2, USP recipe). Fasted state simulated intestinal fluid (FaSSIF, 3 mM sodium taurocholate, 0.75 mM phospholipid from soybean lecithin, 50 mM phosphate buffer, ionic strength adjusted to 250 mM with NaCl, pH 6.8) and fed state simulated intestinal fluid (FeSSIF, 15 mM sodium taurocholate, 3.75 mM phospholipid from soybean lecithin, 144 mM acetic acid, 50 mM phosphate buffer, ionic strength adjusted to 250 mM with NaCl, pH 6.8).

For `CCOc1cccnc1Oc1cncc(-c2ncc(C(=O)N[C@@H]3CNCC[C@@H]3F)cn2)c1` [Example 3, 2-{5-[(3-Ethoxypyridin-2-yl)oxy]pyridin-3-yl}-N-[(3R,4S)-4-fluoropiperidin-3-yl]pyrimidine-5-carboxamide, bis(trifluoroacetate) Salt], the IC50 at human DGAT2 (hDGAT2) was 40 nM; in data set [2], 23 nM. The pKa in data set [1] is 8.1. For the same compound, the microsomal CLint at 1 μM in data set [3] was below 7 µL/min/mg. The hepatocyte CLint at 1 μM in data set [4] is below 1.9 µL/min/1e6 cells.

As to `CCOc1cccnc1Oc1cncc(-c2ncc(C(=O)N[C@@H]3CNC[C@@H](F)C3)cn2)c1` [Example 4, 2-{5-[(3-Ethoxypyridin-2-yl)oxy]pyridin-3-yl}-N-[(3S,5S)-5-fluoropiperidin-3-yl]pyrimidine-5-carboxamide], the “circulating triglyceride response, resulting levels” value in data set [5] is recorded as “approached those of the chow-fed vehicle animals”. Besides, the Solubility in data set [6] stood at 580 µg/mL (≈ 1320 µM).

The values are drawn from patent US11471458B2, “Diacylglycerol acyl transferase 2 inhibitor” (Pfizer Inc., priority 2019, dated 2022).
